Data reported in patent US20220169622A1, “AMPLIFICATION OF NUCLEIC ACIDS” (Abbott Molecular Inc., priority 2018, published 2022).
“Also recorded” adds a separate entry of the source.

How the values were obtained:
Format in all cases: biochemical
[1] = tested on: non-specific amplification products; assay: RT-PCR without HIV-1 target RNA after master mix incubation at 2 to 8° C. for 16 hours, EVA Green (Example 2); settings: 0.0015, 0.005, 0.01% (w/w) MIT; master mix incubated at 2 to 8° C. for 16 hours; no HIV-1 target RNA; compared to reactions without MIT
Method: During the development of embodiments of the technology provided herein, experiments were conducted to simulate the preparation of bulk RT-PCR reagents by a commercial manufacturing process. In particular, prototype HIV-1 assay master mixes comprising 0, 0.015, 0.05, and 0.1% (w/w) PROCLIN 950 (corresponding to 0, 0.0015, 0.005, and 0.01% (w/w) MIT concentrations, respectively) were incubated at 2 to 8° C. for 16 hours. RT-PCR was then performed with each master mix in the absence of HIV-1 target RNA (2 replicates per condition). The fluorescent DNA-intercalating dye. EVA Green was included in each reaction to monitor the accumulation of non-specific amplification products. Realtime EVA Green fluorescence signals from RT-PCR reactions comprising 0, 0.015, 0.05, and 0.1% (w/w) PROCLIN 950 are shown in FIG. 2.

[2] = tested on: Chlamydia trachomatis; assay: Prototype CT/NG assay RT-PCR with 0.1 inclusion forming units (Example 4); settings: 0.015% (w/w) PROCLIN 950 (0.0015% (w/w) MIT); 0.1 inclusion forming units of Chlamydia trachomatis; compared to no PROCLIN 950
Method: During the development of embodiments of the technology provided herein, experiments were conducted to test RT-PCR in the presence of MIT in a prototype CT/NG assay master mix. Prototype CT/NG assay master mixes comprising 0.1 inclusion forming units of Chlamydia trachomatis and either 0.015% (w/w) PROCLIN 950 (0.0015% (w/w) MIT) or comprising no PROCLIN 950 were tested by RT-PCR (8 replicates each condition). CT-specific realtime fluorescence signals from CT/NG RT-PCR reactions comprising 0 or 0.015% (w/w) PROCLIN 950 (0.0015% (w/w) MIT) are shown in FIG. 4. […] Further, the prototype CT/NG assay uses different primer and probe sets than the prototype HIV-1 assay described in Example 3.

[3] = tested on: non-specific amplification products; assay: RT-PCR without template, EVA Green monitoring of non-specific amplification products (Example 1); settings: 0.0015, 0.005, 0.01% (w/w) MIT (0.015, 0.05, 0.1% (w/w) PROCLIN 950); no template; compared to reactions without MIT
Text: The primers and probes in the reaction mixtures target HIV-1 nucleic acids. The fluorescent DNA-intercalating dye, EVA Green, was included in each reaction to monitor the accumulation of non-specific amplification products. Realtime EVA Green fluorescence signals from RT-PCR reactions comprising […], 0.05. and 0.1% (w/w) PROCLIN 950 are shown in FIG. 1.

[4] = tested on: HIV-1 target RNA; assay: Prototype HIV-1 assay RT-PCR with 50 copies of target RNA (Example 3); settings: 0.015% (w/w) PROCLIN 950 (0.0015% (w/w) MIT); 50 copies of HIV-1 target RNA; compared to no PROCLIN 950
Method: During the development of embodiments of the technology provided herein, experiments were conducted to test RT-PCR in the presence of MIT in a prototype HIV-1 assay master mix. Prototype HIV-1 assay master mixes comprising 50 copies of HIV-1 target RNA and either 0.015% (w/w) PROCLIN 950 (0.0015% (w/w) MIT) or comprising no PROCLIN 950 were tested by RT-PCR (8 replicates each condition). HIV-specific realtime fluorescence signals from HIV-1 RT-PCR reactions comprising 0 or 0.015% (w/w) PROCLIN 950 are shown in FIG. 3.

Q: With `Cn1sccc1=O` [MIT, 2-methyl-4-isothiazolin-3-one] as the molecule, how does the “non-specific product formation (EVA Green signal)” value [1] read?
A: reduces the accumulation of non-specific product during prolonged storage; also recorded: decreased levels of non-specific product formation

Q: What about the “CT-specific realtime fluorescence signal (RT-PCR performance)” value [2] of the same molecule?
A: enhances RT-PCR performance

Q: What about the “non-specific product formation (EVA Green signal)” value [3] of the same molecule?
A: reduces the accumulation of non-specific product; also recorded: decreased levels of non-specific product formation

Q: And the “HIV-specific realtime fluorescence signal (RT-PCR performance)” value [4]?
A: enhances RT-PCR performance
